The record followed here is patent US11384078B2, “5,6-fused-bicyclic compounds and compositions for the treatment of parasitic diseases” (NOVARTIS AG, priority 2017, dated 2022).

Assay [1] deals with Leishmania donovani axenic amastigote. The assay can be described thus: In vitro assay for growth inhibition of Leishmania donovani axenic amastigote (Cell TiterGlo luminescence). The assay is classed as cell-based. The following applies: read-out: L. donovani amastigotes EC50. As to the method:
Abbreviations as used herein below have the corresponding meaning: • CPRG Chlorophenol Red-P-D-galactopyranoside • ATP adenosine triphosphate • BSA bovine serum albumin • DMSO dimethyl sulfoxide • FBS fetal bovine serum • PBS phosphate buffered saline • RPMI 1640 Rosweli Park Memorial Institute (RPMI) 1640 medium In Vitro Assay for Growth Inhibition of Leishmania donovani Axenic Amastiqote
Leishmania donovani axenic amastigote parasites are grown at 37° C., 5% CO2 in media made of RPMI 1640, 4 mM L-glutamine, 20% heat inactivated FBS, 100 units/ml of penicillin and 100 μg/ml of streptomycin, 23 μM folic acid, 100 μM adenosine, 22 mM D-glucose, 25 mM MES. The pH of media is adjusted to 5.5 at 37° C. using HCl. 20 μL of media is first dispensed into 384 well plates and 100 nL of the compounds of invention in DMSO are added to the plate wells. At the same time control compounds and DMSO are added to plates to serve as the positive and negative controls, respectively. 40 μL of parasite culture (9600 parasites) are then added to the plate wells. The plates are then placed into incubators. After two days incubation, 20 μL of Cell TiterGlo® (Promega) is added to the plate wells. The luminescence signal of each well is measured using the Envision reader (Perkin Elmer).
On the technique in general: Cellular ATP, detected with luciferase, serves as a proxy for viable cell number.

Assay [2] relates to Trypanosoma cruzi amastigotes cultured in 3T3 fibroblast cells. The assay can be described thus: Assay for growth inhibition of kinetoplastid parasite Trypanosoma cruzi (beta-galactosidase Tulahuen strain, CPRG readout). The assay is classed as cell-based. The following applies: read-out: Buckner infectious T. cruzi EC50. The text has this: Assay for Growth Inhibition of Kinetoplastid Parasite Trypanosoma cruzi
Compounds of the invention can be assayed for inhibitor activity against Trypanosoma cruzi amastigotes cultured in 3T3 fibroblast cells. The assay is done using the mammalian stage (amastigotes) of T. cruzi that replicates in the intracellular space of host cells. The host cells are initially infected with the culture-derived trypomastigotes that rapidly invade and then divide as amastigotes. The protocol uses the Tulahuen strain of T. cruzi that has been engineered to express the E. coli beta-galactosidase gene (Lac-Z) (Antimicr. Agents Chemoth. 40:2592, 1996). This allows for a colorimetric readout by using the substrate CPRG and an absorbance plate reader.
3T3 fibroblast cells are re-suspended in RPMI-1640 medium without phenol red medium supplemented with 10% FBS (heat inactivated), 100 μg/ml penicillin, and 100 μg/ml streptomycin. Forty μL of suspension (1,000 cells) is dispensed into 384-well plates and incubated overnight at 37° C. temperature and in atmosphere containing 5% CO2. The following day, 100 nL of compounds of the invention in DMSO are added to plate wells containing 3T3 cells. At the same time control compounds (benznidazole and nifurtimox) and DMSO are added to plates to serve as the positive and negative controls, respectively. After that, 10 μL of media containing 10,000 T. cruzi trypomastigotes are added to each plate well and plates are placed back into incubators. After 6 day incubation, 10 μL of reagent solution (0.6 mM CPRG, 0.6% NP-40 in PBS) is added to plates and incubated at room temperature for 2 hours. Absorbance is then measured on SpectraMax GEMINI fluorimeter to determine relative number of T. cruzi cells present in each plate well.

Setting [3] is: Leishmania donovani, L. donovani axenic amastigotes in vitro.
[4] abbreviates: Trypanosoma cruzi, Fibroblast, T. cruzi amastigotes in 3T3 fibroblast cells.
Where [5] appears, read: Leishmania donovani, Table 4: compound of Formula (I) compared with compounds having a different core.
The mark [6] stands for this setting: Trypanosoma cruzi, Fibroblast, Table 4: compound of Formula (I) compared with compounds having a different core.

pEC50: −log10 of the molar value. Read-outs that look alike come from different tables or passages of the source.

As to `Cc1nc(C)c(C(=O)Nc2ccc(F)c(-n3cc4cc(CC(C)C)cnc4n3)c2)o1` [Compound 16, N-{4-fluoro-3-[5-(2-methylpropyl)-2H-pyrazolo[3,4-b]pyridin-2-yl]phenyl}-2,4-dimethyl-1,3-oxazole-5-carboxamide], the pEC50 (as a rule, the negative decadic logarithm of the EC50, by convention in mol/L) in assay [1] (setting [3]) is 7.05; in assay [2] (setting [4]), 7.92.

In the case of `Cc1nc(C)c(C(=O)Nc2ccc(F)c(-n3cc4cc(C5CC5)cnc4n3)c2)o1` [Compound 17, N-(3-{5-cyclopropyl-2H-pyrazolo[3,4-b]pyridin-2-yl}-4-fluorophenyl)-2,4-dimethyl-1,3-oxazole-5-carboxamide], the pEC50 was 7.19 in assay [1] (setting [3]) and 7.80 in assay [2] (setting [4]).

Turning to `O=C(Nc1ccc(F)c(-n2cc3cc(C4CCCC4)cnc3n2)c1)N1CC(F)C1` [Compound 18, N-(3-{5-cyclopentyl-2H-pyrazolo[3,4-b]pyridin-2-yl}-4-fluorophenyl)-3-fluoroazetidine-1-carboxamide], the pEC50 in assay [1] (setting [3]) was 6.54; in assay [2] (setting [4]), 6.80. With `O=C(Nc1ccc(F)c(-n2cc3cc(C4CCCC4)cnc3n2)c1)N1CC(F)(F)C1` [Compound 30, N-(3-{5-cyclopentyl-2H-pyrazolo[3,4-b]pyridin-2-yl}-4-fluorophenyl)-3,3-difluoroazetidine-1-carboxamide], the pEC50 in assay [1] (setting [3]) is 6.23. Still for that read-out and setting: the figure for `CC(C)Cc1cnc2nn(-c3cc(NC(=O)N4CC[C@@H](F)C4)ccc3F)cc2c1` [Compound 41, (3R)-3-fluoro-N-{4-fluoro-3-[5-(2-methylpropyl)-2H-pyrazolo[3,4-b]pyridin-2-yl]phenyl}pyrrolidine-1-carboxamide] is 7.70. `O=C(Nc1ccc(F)c(-n2cc3cc(C4CCCC4)cnc3n2)c1)N1CC[C@@H](F)C1` [Compound 43, (3R)-N-(3-{5-cyclopentyl-2H-pyrazolo[3,4-b]pyridin-2-yl}-4-fluorophenyl)-3-fluoropyrrolidine-1-carboxamide]: the pEC50 in assay [1] (setting [3]) is 8.33; in assay [2] (setting [4]), 8.28. As for `CC(C)Cc1cnc2nn(-c3cc(NC(=O)c4ccco4)ccc3F)cc2c1` [Compound 54, N-{4-fluoro-3-[5-(2-methylpropyl)-2H-pyrazolo[3,4-b]pyridin-2-yl]phenyl}furan-2-carboxamide], the pEC50 in assay [1] (setting [3]) was 7.55; in assay [2] (setting [4]), 8.39. The like results for `O=C(Nc1ccc(F)c(-n2cc3cc(C4CCCCC4)cnc3n2)c1)c1ccco1` [Compound 57, N-(3-{5-cyclohexyl-2H-pyrazolo[3,4-b]pyridin-2-yl}-4-fluorophenyl)furan-2-carboxamide] were, in that order, 6.15 and 6.44. For `CCC(C)c1cnc2nn(-c3cc(NC(=O)c4ccco4)ccc3F)cc2c1` (centres unmarked) [Compound 61, N-{3-[5-(butan-2-yl)-2H-pyrazolo[3,4-b]pyridin-2-yl]-4-fluorophenyl}furan-2-carboxamide], in that order: 6.62 and 7.28.

For `Cc1nc(C)c(C(=O)Nc2ccc(F)c(-n3cc4cc(CC(C)(C)C)cnc4n3)c2)o1` [Compound 102, N-{3-[5-(2,2-dimethylpropyl)-2H-pyrazolo[3,4-b]pyridin-2-yl]-4-fluorophenyl}-2,4-dimethyl-1,3-oxazole-5-carboxamide], the figures for the pEC50 in assay [1] (setting [3]) and in assay [2] (setting [4]) were 6.96 and 7.34, respectively. The like results for `Cc1ccc(C(=O)Nc2ccc(F)c(-n3cc4cc(C(C)C)cnc4n3)c2)o1` [Compound 109, N-{4-fluoro-3-[5-(propan-2-yl)-2H-pyrazolo[3,4-b]pyridin-2-yl]phenyl}-5-methylfuran-2-carboxamide] were, in that order, 7.13 and 7.82. For `COc1ccc(C(=O)Nc2ccc(F)c(-n3cc4cc(C(C)C)cnc4n3)c2)o1` [Compound 110, N-{4-fluoro-3-[5-(propan-2-yl)-2H-pyrazolo[3,4-b]pyridin-2-yl]phenyl}-5-methoxyfuran-2-carboxamide], in that order: 6.19 and 6.82. Consider `CC(C)c1cnc2nn(-c3cc(NC(=O)c4ccc(F)o4)ccc3F)cc2c1` [Compound 113, 5-fluoro-N-{4-fluoro-3-[5-(propan-2-yl)-2H-pyrazolo[3,4-b]pyridin-2-yl]phenyl}furan-2-carboxamide], for which the figures for the negative-log EC50 (pEC50) in assay [1] (setting [3]) and in assay [2] (setting [4]) were 7.43 and 8.28, respectively. The like results for `O=C(Nc1ccc(F)c(-n2cc3cc(N4CCOCC4)cnc3n2)c1)c1ccco1` [Compound 122, N-{4-fluoro-3-[5-(morpholin-4-yl)-2H-pyrazolo[3,4-b]pyridin-2-yl]phenyl}furan-2-carboxamide] were, in that order, 7.82 and 8.38. The like results for `CC(C)c1cnc2nn(-c3cc(NC(=O)N4CC(F)(F)C4)ccc3F)cc2c1` [Compound 124, 3,3-difluoro-N-{4-fluoro-3-[5-(propan-2-yl)-2H-pyrazolo[3,4-b]pyridin-2-yl]phenyl}azetidine-1-carboxamide] were, in that order, 7.74 and 7.80. Take `CC(C)c1cnc2nn(-c3cc(NC(=O)C4CCC4)ccc3F)cc2c1` [Compound 210, N-{4-fluoro-3-[5-(propan-2-yl)-2H-pyrazolo[3,4-b]pyridin-2-yl]phenyl}cyclobutanecarboxamide]: the pEC50 in assay [1] (setting [3]) was 6.31; in assay [2] (setting [4]), 7.10. In the case of `CC(C)c1cnc2nn(-c3cc(NC(=O)CC(C)C(F)(F)F)ccc3F)cc2c1` (centres unmarked) [Compound 213, 4,4,4-trifluoro-N-{4-fluoro-3-[5-(propan-2-yl)-2H-pyrazolo[3,4-b]pyridin-2-yl]phenyl}-3-methylbutanamide], the pEC50 in assay [1] (setting [3]) is 5.81; in assay [2] (setting [4]) it was 6.44. For `CC(C)c1cnc2nn(-c3cc(NC(=O)CC(C)(C)C)ccc3F)cc2c1` [Compound 217, N-{4-fluoro-3-[5-(propan-2-yl)-2H-pyrazolo[3,4-b]pyridin-2-yl]phenyl}-3,3-dimethylbutanamide], in that order: 4.84 and 5.36. The like results for `O=C(Nc1ccc(F)c(-n2cc3cc(N4CC5(C4)CC5(F)F)cnc3n2)c1)N1CC(F)C1` [Compound 261, N-[3-(5-{1,1-difluoro-5-azaspiro[2.3]hexan-5-yl}-2H-pyrazolo[3,4-b]pyridin-2-yl)-4-fluorophenyl}-3-fluoroazetidine-1-carboxamide] were, in that order, 8.40 and 8.70. The like results for `O=C(Nc1ccc(F)c(-n2cc3cc(N4CCC(F)(F)C4)cnc3n2)c1)N1CC(F)C1` [Compound 262, N-{3-[5-(3,3-difluoropyrrolidin-1-yl)-2H-pyrazolo[3,4-b]pyridin-2-yl]-4-fluorophenyl}-3-fluoroazetidine-1-carboxamide] were, in that order, 7.48 and 8.40. As for `Cc1nc(C)c(C(=O)Nc2ccc(F)c(-n3cc4cc(N5CC(C(F)(F)F)C5)cnc4n3)c2)o1` [Compound 279], the pEC50 was 8.00 in assay [1] (L. donovani axenic amastigotes in vitro) and 8.52 in assay [2] (T. cruzi amastigotes in 3T3 fibroblast cells). With `O=C(Nc1ccc(F)c(-n2cc3cc(-c4ncccc4Cl)cnc3n2)c1)C1CC1` [Compound 333, N-{3-[5-(3-chloropyridin-2-yl)-2H-pyrazolo[3,4-b]pyridin-2-yl]-4-fluorophenyl}cyclopropanecarboxamide], the results for the pEC50 in assay [1] (setting [3]) and in assay [2] (setting [4]) were 7.37 and 7.80, respectively. `Cc1nc(C)c(C(=O)Nc2ccc(F)c(-n3cc4cc(C(C)C)cnc4n3)c2)o1` [drawing 458]: the pEC50 in assay [1] (setting [5]) was 7.74; in assay [2] (setting [6]), 7.82. The like results for `Cc1nc(C)c(C(=O)Nc2ccc(F)c(-c3nc4ncc(C(C)C)cn4n3)c2)o1` [reference compound] were, in that order, 6.68 and 7.35. The like results for `Cc1nc(C)c(C(=O)Nc2ccc(F)c(-c3nc4ncc(C(C)(C)C)cn4n3)c2)o1` [reference compound] were, in that order, 7.10 and 7.66. The like results for `Cc1nc(C)c(C(=O)Nc2ccc(F)c(-c3cn4nc(C(C)(C)C)cnc4n3)c2)o1` [reference compound] were, in that order, 6.44 and 7.24.
